The results in this text go back to patent US9169217B2, “Arylalkyl esters of 4-amino-6-(substituted phenyl)-picolinates and 6-amino-2-(substituted phenyl)-pyrimidinecarboxylates and their use as selective herbicides for crops” (Dow AgroSciences LLC, priority 2011, dated 2015).

Assay in all cases: In-water applied herbicidal activity in transplanted paddy rice (Example 17)
Common to all, as to assay type: in vivo

The test system of test [1] is Echinochloa crus-galli (L.) P.BEAUV. (barnyardgrass). As to conditions: for pest or weed control at 17.5 g/ha / pest or weed control at 35 g/ha: Echinochloa crus-galli, 504 h, read-out: Visual Injury (%) ECHCG; for GR50 / GR80 / GR90: ECHCG, in-water applied, probit analysis; for GR50: 50% growth reduction; for GR80: 80% growth reduction; for GR90: 90% growth reduction; for pest or weed control at 35 g/ha: 35 g ae/ha. The essentials:
(§1)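 Ester forms of test compounds, in acetone diluted with aqueous Agri-dex (final 1.25% v/v crop oil concentrate), were injected into the flood water of paddy pots holding weeds or rice at the 2nd–3rd leaf stage in mud (pH ~7.3–7.8). Visual injury versus untreated plants was scored 0–100% after 3 weeks in greenhouse (~29/26 °C). GR50/GR80 were derived by probit analysis.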

In test [2] the test system is Fimbristylis miliacea (L.) VAHL (globe fringerush). The settings on record: for GR50 / GR80 / GR90: FIMMI, in-water applied, probit analysis; for GR50: 50% growth reduction; for GR80: 80% growth reduction; for GR90: 90% growth reduction; for Visual Injury (%) FIMMI: rice cropping systems, in-water applied (paddy), 35 g ae/ha, 21 DAA, may represent multiple trials. The essentials: as §1

Test [3] concerns Scirpus juncoides ROXB. (Japanese bulrush). The settings on record: for GR50 / GR80 / GR90: SCPJU, in-water applied, probit analysis; for GR50: 50% growth reduction; for GR80: 80% growth reduction; for GR90: 90% growth reduction. The method in brief: as §1
The mark [4] stands for this setting: rice cropping systems, in-water applied (paddy), 17.5 g ae/ha, 21 DAA, may represent multiple trials.
Setting [5] is: rice cropping systems, in-water applied (paddy), 21 DAA, may represent multiple trials.

Read-outs that look alike come from different tables or passages of the source. A value given as a limit tells only on which side of the number the result lay.

As to `Nc1c(F)c(-c2ccc(C3CC3)cc2)nc(C(=O)OCc2ccccc2)c1Cl` [Compound 42, benzyl 4-amino-3-chloro-6-(4-cyclopropylphenyl)-5-fluoropicolinate], the pest or weed control at 17.5 g/ha in test [1] (setting [4]) came to 70%.
Regarding `COc1c(Cl)ccc(-c2nc(C(=O)OCc3ccccc3)c(Cl)c(N)c2F)c1F` [Compound 1, benzyl 4-amino-3-chloro-6-(4-chloro-2-fluoro-3-methoxyphenyl)-5-fluoropicolinate], in test [1], the GR50 stood at 10.9 g ae/ha, the GR80 stood at 21.8 g ae/ha, the GR90 was found to be 31.2 g ae/ha and the pest or weed control at 17.5 g/ha was 87%. Also, in test [2], the GR50 was less than 17.5 g ae/ha, the GR80 was less than 17.5 g ae/ha and the GR90 is less than 17.5 g ae/ha. In test [3], this compound had a GR50 of less than 8.75 g ae/ha, a GR80 of 4.4 g ae/ha and a GR90 of 10.8 g ae/ha. Besides, the pest or weed control at 17.5 g/ha in test [3] (Schoenoplectiella juncoides, 504 h, read-out: Visual Injury (%) SCPJU) amounted to 99%.
For `COc1c(Cl)ccc(-c2cc(N)c(Cl)c(C(=O)OCc3ccccc3)n2)c1F` [Compound 39], in test [1] (setting [5]), the pest or weed control at 35 g/ha amounted to 100%. The “Visual Injury (%) FIMMI” value in test [2] stood at 100%.
As for `COC(=O)c1nc(-c2ccc(Cl)c(OC)c2F)c(F)c(N)c1Cl` [E, methyl 4-amino-3-chloro-6-(4-chloro-2-fluoro-3-methoxyphenyl)-5-fluoropicolinate, reference compound], the GR50 in test [1] is listed as 33.2 g ae/ha; in test [2], 14.4 g ae/ha; in test [3] it was 9.6 g ae/ha. Moreover, the values for the GR80 in test [1], in test [2] and in test [3] were 58.5 g ae/ha, 21.7 g ae/ha and 20.0 g ae/ha, respectively. The GR90 in test [1] is on record as 78.7 g ae/ha; in test [2], 26.8 g ae/ha; in test [3], 29.5 g ae/ha. In addition, the pest or weed control at 17.5 g/ha in test [1] (setting [4]) turned out to be 26%; in test [3] (Schoenoplectiella juncoides, 504 h, rice cropping systems, in-water applied (paddy), 17.5 g ae/ha, 21 DAA, may represent multiple trials, read-out: Visual Injury (%) SCPJU), 75%.
As for `COC(=O)c1nc(-c2ccc(C3CC3)cc2)c(F)c(N)c1Cl` [Compound B, methyl 4-amino-3-chloro-6-(4-cyclopropylphenyl)-5-fluoropicolinate], the pest or weed control at 17.5 g/ha in test [1] (setting [4]) came to 10%.
As to `COC(=O)c1nc(-c2ccc(Cl)c(OC)c2F)cc(N)c1Cl` [Compound G, methyl 4-amino-3-chloro-6-(4-chloro-2-fluoro-3-methoxyphenyl)picolinate, reference compound], the pest or weed control at 35 g/ha in test [1] (setting [5]) stood at 74%. The “Visual Injury (%) FIMMI” value in test [2] stood at 61%.
Turning to `COC(=O)c1nc(-c2ccc(Cl)c(OC)c2F)nc(N)c1OC` [Compound F, methyl 6-amino-2-(4-chloro-2-fluoro-3-methoxyphenyl)-5-methoxypyrimidine-4-carboxylate, reference compound], the pest or weed control at 35 g/ha in test [1] (setting [5]) is 0%; in test [3] (Schoenoplectiella juncoides, 504 h, rice cropping systems, in-water applied (paddy), 35 g ae/ha, 21 DAA, may represent multiple trials, read-out: Visual Injury (%) SCPJU), 50%.
